Measurements as given in US20150094474A1, “AGRICULTURAL CHEMICALS” (Redx Pharma Ltd., priority 2012, published 2015).

Assays:
barley = test: Herbicidal bioassay, barley (% necrosis); assay type: in vivo
Summary of the method: (§1)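 Scoring of % necrosis followed EPPO guideline PP1/135 at specified growth intervals, five replicates per species and treatment. Plants at the 2-4 true leaf stage received Potter-tower sprays of DMSO-diluted compounds across six levels from 0.0001% to 0.05%, with water and DMSO controls.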

peas = test: Herbicidal bioassay, peas (% necrosis); assay type: in vivo
Summary of the method: as §1

For `COc1cc(OC)nc(NC(=O)NS(=O)(=O)c2cc(CNS(C)(=O)=O)ccc2COC(C)=O)n1` [Compound 61, [2-[(4,6-Dimethoxypyrimidin-2-yl)carbamoylsulfamoyl]-4-(methanesulfonamidomethyl)phenyl]methylacetate], the “Sum of % necrosis in barley” value (barley; Dose 0.000001, Day 0) was “C (less than 50% necrosis)”, the “Sum of % necrosis in barley” value (barley; Dose 0.000001, Day 1) was “C (less than 50% necrosis)” and the “Sum of % necrosis in barley” value (barley; Dose 0.000001, Day 3) was “C (less than 50% necrosis)”. The “Sum of % necrosis in barley” value (barley; Dose 0.000001, Day 7) was “C (less than 50% necrosis)”, the “Sum of % necrosis in barley” value (barley; Dose 0.000001, Day 10) was “C (less than 50% necrosis)” and the “Sum of % necrosis in barley” value (barley; Dose 0.000001, Day 14) was “C (less than 50% necrosis)”. For the same molecule, the “Sum of % necrosis in barley” value (barley; Dose 0.000005, Day 0) was “C (less than 50% necrosis)”, the “Sum of % necrosis in barley” value (barley; Dose 0.000005, Day 1) was “C (less than 50% necrosis)” and the “Sum of % necrosis in barley” value (barley; Dose 0.000005, Day 3) was “C (less than 50% necrosis)”. For the same molecule, the “Sum of % necrosis in barley” value (barley; Dose 0.000005, Day 7) was “C (less than 50% necrosis)”, the “Sum of % necrosis in barley” value (barley; Dose 0.000005, Day 10) was “C (less than 50% necrosis)” and the “Sum of % necrosis in barley” value (barley; Dose 0.000005, Day 14) was “C (less than 50% necrosis)”. The “Sum of % necrosis in barley” value (barley; Dose 0.00001, Day 0) was “C (less than 50% necrosis)”, the “Sum of % necrosis in barley” value (barley; Dose 0.00001, Day 1) was “C (less than 50% necrosis)” and the “Sum of % necrosis in barley” value (barley; Dose 0.00001, Day 3) was “C (less than 50% necrosis)”. For the same molecule, the “Sum of % necrosis in barley” value (barley; Dose 0.00001, Day 7) was “C (less than 50% necrosis)”, the “Sum of % necrosis in barley” value (barley; Dose 0.00001, Day 10) was “C (less than 50% necrosis)” and the “Sum of % necrosis in barley” value (barley; Dose 0.00001, Day 14) was “C (less than 50% necrosis)”. The “Sum of % necrosis in barley” value (barley; Dose 0.00005, Day 0) was “C (less than 50% necrosis)”, the “Sum of % necrosis in barley” value (barley; Dose 0.00005, Day 1) was “C (less than 50% necrosis)” and the “Sum of % necrosis in barley” value (barley; Dose 0.00005, Day 3) was “C (less than 50% necrosis)”. The “Sum of % necrosis in barley” value (barley; Dose 0.00005, Day 7) was “C (less than 50% necrosis)”, the “Sum of % necrosis in barley” value (barley; Dose 0.00005, Day 10) was “C (less than 50% necrosis)” and the “Sum of % necrosis in barley” value (barley; Dose 0.00005, Day 14) was “C (less than 50% necrosis)”. The “Sum of % necrosis in barley” value (barley; Dose 0.0001, Day 0) was “C (less than 50% necrosis)”, the “Sum of % necrosis in barley” value (barley; Dose 0.0001, Day 1) was “C (less than 50% necrosis)” and the “Sum of % necrosis in barley” value (barley; Dose 0.0001, Day 3) was “C (less than 50% necrosis)”. For the same molecule, the “Sum of % necrosis in barley” value (barley; Dose 0.0001, Day 7) was “C (less than 50% necrosis)”, the “Sum of % necrosis in barley” value (barley; Dose 0.0001, Day 10) was “C (less than 50% necrosis)” and the “Sum of % necrosis in barley” value (barley; Dose 0.0001, Day 14) was “C (less than 50% necrosis)”. For the same molecule, the “Sum of % necrosis in barley” value (barley; Dose 0.0005, Day 0) was “C (less than 50% necrosis)”, the “Sum of % necrosis in barley” value (barley; Dose 0.0005, Day 1) was “C (less than 50% necrosis)” and the “Sum of % necrosis in barley” value (barley; Dose 0.0005, Day 3) was “C (less than 50% necrosis)”. For the same molecule, the “Sum of % necrosis in barley” value (barley; Dose 0.0005, Day 7) was “C (less than 50% necrosis)”, the “Sum of % necrosis in barley” value (barley; Dose 0.0005, Day 10) was “C (less than 50% necrosis)” and the “Sum of % necrosis in barley” value (barley; Dose 0.0005, Day 14) was “C (less than 50% necrosis)”. The “Sum of % necrosis in Pea” value (peas; Dose 0.000001, Day 0) was “C (less than 50% necrosis)”, the “Sum of % necrosis in Pea” value (peas; Dose 0.000001, Day 1) was “C (less than 50% necrosis)” and the “Sum of % necrosis in Pea” value (peas; Dose 0.000001, Day 3) was “C (less than 50% necrosis)”. The “Sum of % necrosis in Pea” value (peas; Dose 0.000001, Day 7) was “C (less than 50% necrosis)”, the “Sum of % necrosis in Pea” value (peas; Dose 0.000001, Day 10) was “C (less than 50% necrosis)” and the “Sum of % necrosis in Pea” value (peas; Dose 0.000001, Day 14) was “C (less than 50% necrosis)”. The “Sum of % necrosis in Pea” value (peas; Dose 0.000005, Day 0) was “C (less than 50% necrosis)”, the “Sum of % necrosis in Pea” value (peas; Dose 0.000005, Day 1) was “C (less than 50% necrosis)” and the “Sum of % necrosis in Pea” value (peas; Dose 0.000005, Day 3) was “C (less than 50% necrosis)”. The “Sum of % necrosis in Pea” value (peas; Dose 0.000005, Day 7) was “C (less than 50% necrosis)”, the “Sum of % necrosis in Pea” value (peas; Dose 0.000005, Day 10) was “C (less than 50% necrosis)” and the “Sum of % necrosis in Pea” value (peas; Dose 0.000005, Day 14) was “C (less than 50% necrosis)”. For the same molecule, the “Sum of % necrosis in Pea” value (peas; Dose 0.00001, Day 0) was “C (less than 50% necrosis)”, the “Sum of % necrosis in Pea” value (peas; Dose 0.00001, Day 1) was “C (less than 50% necrosis)” and the “Sum of % necrosis in Pea” value (peas; Dose 0.00001, Day 3) was “C (less than 50% necrosis)”. For the same molecule, the “Sum of % necrosis in Pea” value (peas; Dose 0.00001, Day 7) was “C (less than 50% necrosis)”, the “Sum of % necrosis in Pea” value (peas; Dose 0.00001, Day 10) was “C (less than 50% necrosis)” and the “Sum of % necrosis in Pea” value (peas; Dose 0.00001, Day 14) was “B (50%-80% necrosis)”. For the same molecule, the “Sum of % necrosis in Pea” value (peas; Dose 0.00005, Day 0) was “C (less than 50% necrosis)”, the “Sum of % necrosis in Pea” value (peas; Dose 0.00005, Day 1) was “C (less than 50% necrosis)” and the “Sum of % necrosis in Pea” value (peas; Dose 0.00005, Day 3) was “C (less than 50% necrosis)”. For the same molecule, the “Sum of % necrosis in Pea” value (peas; Dose 0.00005, Day 7) was “C (less than 50% necrosis)”, the “Sum of % necrosis in Pea” value (peas; Dose 0.00005, Day 10) was “B (50%-80% necrosis)” and the “Sum of % necrosis in Pea” value (peas; Dose 0.00005, Day 14) was “B (50%-80% necrosis)”. For the same molecule, the “Sum of % necrosis in Pea” value (peas; Dose 0.0001, Day 0) was “C (less than 50% necrosis)”, the “Sum of % necrosis in Pea” value (peas; Dose 0.0001, Day 1) was “C (less than 50% necrosis)” and the “Sum of % necrosis in Pea” value (peas; Dose 0.0001, Day 3) was “C (less than 50% necrosis)”. The “Sum of % necrosis in Pea” value (peas; Dose 0.0001, Day 7) was “C (less than 50% necrosis)”, the “Sum of % necrosis in Pea” value (peas; Dose 0.0001, Day 10) was “C (less than 50% necrosis)” and the “Sum of % necrosis in Pea” value (peas; Dose 0.0001, Day 14) was “C (less than 50% necrosis)”. The “Sum of % necrosis in Pea” value (peas; Dose 0.0005, Day 0) was “C (less than 50% necrosis)”, the “Sum of % necrosis in Pea” value (peas; Dose 0.0005, Day 1) was “C (less than 50% necrosis)” and the “Sum of % necrosis in Pea” value (peas; Dose 0.0005, Day 3) was “C (less than 50% necrosis)”. For the same molecule, the “Sum of % necrosis in Pea” value (peas; Dose 0.0005, Day 7) was “B (50%-80% necrosis)”, the “Sum of % necrosis in Pea” value (peas; Dose 0.0005, Day 10) was “B (50%-80% necrosis)” and the “Sum of % necrosis in Pea” value (peas; Dose 0.0005, Day 14) was “A (over 80% necrosis)”.
